Source: PMC8509676, “Residual Helicity at the Active Site of the Histidine Phosphocarrier, HPr, Modulates Binding Affinity to Its Natural Partners” (International Journal of Molecular Sciences, 2021)
Like-named read-outs stand apart in the source and are kept apart here.

Key:
[1] = Far-UV CD, helicity from molar ellipticity at 222 nm; format: physicochemical; conditions: 5 °C; for [Θ]^222 (value in parentheses): 50 mM Tris pH 7.0; for Helicity (%): 50 mM Tris pH 7.0, from [Θ]^222 assuming −39,500 deg cm^2 dmol^−1 for a fully formed α-helix
Procedure: Spectra were collected on a Jasco J810 spectropolarimeter (Jasco, Tokyo, Japan) interfaced with a Peltier unit. Far-UV measurements were performed with samples placed in quartz cells with a 0.1 cm path length (Hellma, Kruibeke, Belgium), with a response time of 2 s, a band width of 1 nm, and a scan velocity of 50 nm/min. For all peptides, a wide range of concentrations (10–50 µM) was used to determine whether either the shape or the intensity of the spectra was concentration-dependent. None of those features changed in the concentration range explored. The experiments in aqueous solution were acquired at 5 °C in Tris buffer (50 mM, pH 7.0). Raw ellipticity was converted to molar ellipticity, [Θ], from which the fraction of helical populations was determined as previously described. For the experiments in the presence of each protein (repeated three times), the same concentration used in the fluorescence experiments was used, and the experimental set-up was the same as described above for the isolated peptides.

[2] = TFE titration followed by far-UV CD (disordered-helical two-state equilibrium); format: physicochemical; conditions: for [TFE]1/2 / m: TFE titration by far-UV CD, 20 µM peptide, two-state fit, fitting errors; for percentage of helical population (in parentheses): from ∆G^water assuming a two-state conformational equilibrium; for ∆G^water: product of m- and [TFE]1/2 values, error propagation
Procedure: For experiments in the presence of TFE, the same set of experimental parameters was used. Cosolvent concentrations were indicated in percentage of volume (%). […] The peptide concentration for these experiments was 20 µM.

Rsd^ec = target: T1, Rsd^ec (Escherichia coli, UniProt P0AFX4); experiment: Isothermal titration calorimetry (ITC), peptide/Rsd^ec binding; conditions: ITC, 25 °C; for ΔH, Rsd^ec: 50 mM Tris pH 7.0
T1 construct: His-tag; made in house; host or cells: E. coli C41
Procedure: The experimental set-up and data processing of ITC experiments has been described previously. Rsd^ec or EIN^sc (at 10–20 µM) were injected into the cell, and the peptides in the syringe (100–200 µM) in 50 mM of Tris buffer, pH 7.0. The temperature for all the experiments was 25 °C. Typically, each calorimetric titration consisted of performing 19 injections with 2 μL volume, with a time spacing of 150 s, while stirring at 750 rpm in an Auto-iTC200 high-sensitivity microcalorimeter (MicroCal, Malvern-Panalytical, Malvern, UK). The results were analysed by applying a model that considered a single binding site (assuming a 1:1 stoichiometry) for the peptide/EIN^sc or peptide/Rsd^ec interaction using a nonlinear least-squares regression analysis in Origin 7.0 (OriginLab, Northampton, MA, USA) with user-defined fitting routines.

[3] = Translational diffusion NMR (DOSY); format: physicochemical; conditions: for D (translational diffusion coefficient): DOSY, 10 °C, 100% D2O, 70-120 µM peptide, fitting errors, repeated twice; for Rh (in parentheses, from DOSY): from comparison with the Rh of dioxane (2.12 Å)
Procedure: (b) Translational diffusion NMR (DOSY): Peptide concentrations were the same as those used in the 1D-^1H-NMR spectra. Translational self-diffusion measurements were performed with the pulsed-gradient spin-echo sequence in the presence of 100% D2O. The following relationship existed between the translational self-diffusion coefficient, D, and the delays used during experiment acquisition:(2) I/I0=−exp(DγH2δ^2G^2(Δ−δ/3−τ/2)) where I is the peak intensity of a particular resonance (or a group of them) at any gradient strength; I0 is the maximum peak intensity of the same resonance(s) at the smallest gradient strength (that is, at 2% of the total power of the gradient coil); D is the translational self-diffusion constant (in cm^2 s^−1); δ is the duration (in s) of the gradient; G is the gradient strength (in T cm^−1); ∆ is the time (in s) between the gradients; γH is the gyromagnetic constant of the proton (in rad s^−1 T^−1); and τ is the recovery delay between the bipolar gradients (100 µs in our experiments). The gradient strength (G) was varied in 16 lineal steps, between 2 and 95% of the total power of the gradient coil of the probe. The gradient strength was calibrated by using the value of D for the residual proton water line in a sample containing 100% D2O placed in a 5 mm tube [42]. Data were plotted as I/I0 versus G^2, and the exponential factor of the curve was:(3) DγH2δ^2(Δ−δ/3−τ/2) from which D can be obtained. The duration of the gradient (δ) was 2.25 ms, and the time between the two gradients (∆) was set to 200 ms. The signal from the methyl groups between 1.1 and 0.70 ppm were used for integration of the intensity. A final concentration of 1% of dioxane was added to each peptide; the hydrodynamic radius, Rh, of each peptide was obtained for comparison by assuming that the Rh of dioxane was 2.12 Å [42]. The DOSY experiment was repeated twice with fresh samples for each peptide.

[4] = test system: Staphylococcus aureus CECT59; format: cell-based
Procedure: The CECT59 strain of the Gram-positive bacteria Staphylococcus aureus from the Spanish Type Culture Collection (Colección Española de Cultivos Tipo, CECT, Universitat de Valencia, Spain) was used for determining its sensitivity to the HPr peptides studied in this work. The MIC for each peptide was determined by the two-fold broth microdilution method according to the Clinical and Laboratory Standards Institute (CLSI) guidelines, with some modifications as previously described. For this testing procedure, a bacteria colony previously grown in MH agar plates was isolated and incubated in MH broth at 37 °C overnight to prepare the bacteria inoculum to be used in each assay. Then, the bacteria suspensions were adjusted to a 100× dilution of an 0.5 McFarland turbidity standard in MH broth and incubated with different concentrations of each peptide in round-bottom 96-well polystyrene plates (Deltalab S.L., Rubí, Spain) (50 μL/well) for 24 h at 37 °C. The peptide concentrations employed comprised two-fold dilutions starting at either 120, 160, or 400 µM, depending on the experiment. […] All assays were performed in triplicate.

[5] = target: T2, N-terminal domain of EI from Streptomyces coelicolor (EIN^sc) (Streptomyces coelicolor); experiment: ITC; Rsd^ec or EIN^sc (10–20 µM) in the cell, peptide (100–200 µM) in the syringe; 50 mM Tris, pH 7.0, 25 °C; single binding-site model, 1:1 stoichiometry assumed; conditions: both partners purified
T2 chain: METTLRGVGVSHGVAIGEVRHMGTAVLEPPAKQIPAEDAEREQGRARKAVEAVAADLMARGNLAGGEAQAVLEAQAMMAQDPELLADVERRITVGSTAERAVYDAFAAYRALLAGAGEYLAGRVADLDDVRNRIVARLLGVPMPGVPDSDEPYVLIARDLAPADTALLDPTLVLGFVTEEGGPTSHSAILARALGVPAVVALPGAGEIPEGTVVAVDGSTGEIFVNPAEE

[6] = target: T3, Regulator of sigma D from Escherichia coli (Rsd^ec) (E. coli, UniProt P0AFX4 1-158); experiment: as above; conditions: both partners purified
T3 construct: Rsd (regulator of sigma D), anti-sigma factor of sigma 70, E. coli; 158-residue-long protein; called 'intact Rsd' in the abstract and 'wild-type Rsd vector' in the methods; Vector was a gift from Ann Hochschild; source: E. coli C41, purified as described [24,50]
T3 sequence (looked up): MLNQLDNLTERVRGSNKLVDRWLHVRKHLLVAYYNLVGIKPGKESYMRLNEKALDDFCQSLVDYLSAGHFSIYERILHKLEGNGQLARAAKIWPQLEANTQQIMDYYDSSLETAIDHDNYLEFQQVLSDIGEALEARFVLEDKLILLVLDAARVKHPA

[7] = target: T2, N-terminal domain of EI from …; experiment: other fluorescence titration; peptide 0–30 µM added to 3 µM Rsd^ec or EIN^sc; 50 mM Tris, pH 7.0, 25 °C; samples left overnight at 5 °C; blank of peptide subtracted; conditions: both partners purified
[8] = S. aureus CECT59, two-fold broth microdilution (CLSI), MH broth, 24 h, 37 °C, triplicate (sd = 0), highest concentration tested 400 µM

With “Ac-GWAEGLHARAASAFARAATATG-NH2 [P18A/I21A/V23A]” the “[Θ]^222 (value in parentheses)” value [1] was −2698.61 deg cm^2 dmol^−1, the “Helicity (%)” value [1] was 6.8% and the “[TFE]1/2” value [2] was 19.0 ± 0.9 % (v/v). The m [2] was 184 ± 32 cal/mol (% (v/v)), the “percentage of helical population (in parentheses)” value (“percentage of helical population” below) [2] was 0.17% and the “∆G^water” value [2] was 3.5 ± 0.6 kcal/mol. For the same molecule, the “ΔH, Rsd^ec” value (Rsd^ec) was 0.6 ± 0.4 kcal/mol, the Kd (Rsd^ec; 50 mM Tris pH 7.0, single binding-site model, read-out: Kd, Rsd^ec (ITC)) was 2600 ± 400 nM and the “D (translational diffusion coefficient)” value [3] was 2.5 ± 0.4 cm^2 s^−1 × 10^6. For the same molecule, the “Rh (in parentheses, from DOSY)” value [3] was 9 ± 2 Å and the MIC ([4]; CECT59, 24 h) was 60 µM.

With “Ac-GWAEGLHARAASIFVRAATATG-NH2 [Peptide P18A]” the “[Θ]^222 (value in parentheses)” value [1] was −1135.47 deg cm^2 dmol^−1, the “Helicity (%)” value [1] was 2.9% and the “[TFE]1/2” value [2] was 19.8 ± 0.4 % (v/v). For the same molecule, the m [2] was 181 ± 17 cal/mol (% (v/v)), the “percentage of helical population” value [2] was 0.15% and the “∆G^water” value [2] was 3.6 ± 0.3 kcal/mol. The “ΔH, Rsd^ec” value (Rsd^ec) was 1.1 ± 0.4 kcal/mol, the “D (translational diffusion coefficient)” value [3] was 2.0 ± 0.1 cm^2 s^−1 × 10^6 and the “Rh (in parentheses, from DOSY)” value [3] was 11 ± 1 Å. The MIC [4, 8] was 120 µM.

In the case of “Ac-GWAEGLHARPASIAVRAATATG-NH2 [Peptide F22A]”, the “[Θ]^222 (value in parentheses)” value [1] is reported as −84.95 deg cm^2 dmol^−1, the “Helicity (%)” value [1] is reported as 0.2% and the “[TFE]1/2” value [2] is reported as 22 ± 1 % (v/v). For the same molecule, the m [2] was 134 ± 27 cal/mol (% (v/v)), the “percentage of helical population” value [2] was 0.5% and the “∆G^water” value [2] was 2.9 ± 0.6 kcal/mol. The “ΔH, Rsd^ec” value (Rsd^ec) was 1.1 ± 0.5 kcal/mol, the “D (translational diffusion coefficient)” value [3] was 1.83 ± 0.03 cm^2 s^−1 × 10^6 and the “Rh (in parentheses, from DOSY)” value [3] was 11 ± 1 Å. The MIC [4, 8] was 400 µM.

B1: HPr^9–30 wild-type peptide (residues 9-30 of HPr from Streptomyces coelicolor) (peptide)
peptide: Ac-GWAEGLHARPASIFVRAATATG-NH2
notes: HPr (histidine phosphocarrier) of Streptomyces coelicolor, HPr^sc, residues 9-30; first letter printed as G^9; The limit residues are printed as Gly9-Ala30 (abstract) and Ala9-Gly30 (introduction); source: synthetic peptide, bought: NZYTech (purity >95%)
Molecule B1 has a Kd [5] of 2300 ± 400 nM, a dH [5] of -0.8 ± 0.4 kcal/mol and a Kd [6] of 1400 ± 300 nM. It also gave a dH [6] of 1.3 ± 0.4 kcal/mol and a Kd [7] of 10000 nM.

B2: HPr^9–30 V23A peptide (peptide)
peptide: Ac-GWAEGLHARPASIFARAATATG-NH2
notes: HPr of Streptomyces coelicolor, residues 9-30, with V23A; source: synthetic peptide, bought: NZYTech (purity >95%)
With B2 the Kd [5] was 9100 ± 900 nM, the dH [5] was -6.6 ± 0.5 kcal/mol and the Kd [6] was 8300 ± 900 nM. For the same molecule, the dH [6] was -0.8 ± 0.5 kcal/mol and the Kd [7] was 9000 nM.

B3: HPr^9–30 P18A peptide (peptide)
peptide: Ac-GWAEGLHARAASIFVRAATATG-NH2
notes: HPr of Streptomyces coelicolor, residues 9-30, with P18A; source: synthetic peptide, bought: NZYTech (purity >95%)
With B3 the Kd [6] was 2200 ± 400 nM and the dH [6] was 1.1 ± 0.4 kcal/mol.

B4: HPr^9–30 I21A peptide (peptide)
peptide: Ac-GWAEGLHARPASAFVRAATATG-NH2
notes: HPr of Streptomyces coelicolor, residues 9-30, with I21A; source: synthetic peptide, bought: NZYTech (purity >95%)
With B4 the dH [6] was 1 ± 0.4 kcal/mol.

B5: HPr^9–30 P18A/I21A/F22A/V23A peptide (peptide)
peptide: Ac-GWAEGLHARAASAAARAATATG-NH2
notes: HPr of Streptomyces coelicolor, residues 9-30, with P18A, I21A, F22A and V23A; also called quadruple-mutant; source: synthetic peptide, bought: NZYTech (purity >95%)
Work on B5 yielded a Kd [5] of 1100 ± 200 nM, a dH [5] of 0.2 ± 0.4 kcal/mol and a dH [6] of 4.3 ± 0.5 kcal/mol. The Kd [7] was 11000 nM.

B6: HPr^9–30 P18A/I21A/V23A peptide (peptide)
peptide: Ac-GWAEGLHARAASAFARAATATG-NH2
notes: HPr of Streptomyces coelicolor, residues 9-30, with P18A, I21A and V23A; also called triple-mutant; source: synthetic peptide, bought: NZYTech (purity >95%)
B6 showed a Kd [6] of 2600 ± 400 nM and a dH [6] of 0.6 ± 0.4 kcal/mol.
